Laboratory results as given in patent publication US7524823B2, “Macrolides” (Basilea Pharmaceutica AG, priority 2005, dated 2009).
Converted amounts (≈) assume the structure as drawn. Read-outs that look alike come from different tables or passages of the source.

Key:
Format in all cases: cell-based
[1] = system: Propionibacterium acnes SW101T; assay: MIC by anaerobic broth microdilution (WCB, NCCLS); conditions: code K: Propionibacterium acnes SW101T, 35-37° C., 48 h
Description: (§1) MIC values towards strains of propionibacteria were obtained by broth microdilution using WCB (Anaerobe Broth MIC, Difco) according to NCCLS guidelines (National Committee for Clinical Laboratory Standards. Methods for anti-microbial susceptibility testing of anaerobic bacteria, 5th ed.; approved standard. NCCLS publication no. M11-A5. NCCLS, Wayne, Pa., 2001). Microtitre plates were loaded into 7-L GENbox anaerobic incubation jars (BioMérieux, cat. no. 96 128) fitted with anaerobic atmosphere generators (BioMérieux, cat. no. 96 124) and a Dry Anaerobic Indicator Strip (BBL, cat. no. 271051). Under these conditions, an O2 concentration <0.1% was achieved by 2.5 h, and a CO2 concentration >15% by 24 h. MIC values were read after incubation at 35-37° C. for 48 h (Table 3).

[2] = system: Propionibacterium acnes EG7NS; assay: MIC by anaerobic broth microdilution (WCB, NCCLS); conditions: code I: Propionibacterium acnes EG7NS, anaerobic, 35-37° C., 48 h
Description: as §1

[3] = system: Streptococcus pneumoniae 1/1; assay: MIC by broth microdilution (CAMHB + 5% horse serum, NCCLS); conditions: code D: Streptococcus pneumoniae 1/1
Description: (§2) MIC values for non-anaerobes were obtained by broth microdilution using CAMHB (BBL) according to NCCLS guidelines (National Committee for Clinical Laboratory Standards. Methods for dilution antimicrobial susceptibility tests for bacteria that grow aerobically, 5th ed. Approved standard M7-A6. NCCLS, Wayne, Pa., 2003). Drugs were dissolved in DMSO prior to dispensing into 96-well microtitre plates; the concentration of DMSO in assay wells never exceeded 2% (v/v). CAMHB was supplemented with 5% (v/v) horse serum (Sigma, cat. no. H-1270) in lieu of laked horse blood for cultivation of Streptococcus pneumoniae, and with 5% (v/v) Fildes enrichment (BBL, cat. no. 220810) supernate in lieu of Haemophilus Test Medium and additives for cultivation of Haemophilus influenzae (Pankuch G A, Hoellman D B, Lin G, Bajaksouzian S, Jacobs M R, Appelbaum P C. Activity of HMR 3647 compared to those of five agents against Haemophilus influenzae and Moraxella catarrhalis by MIC determination and time-kill assay. Antimicrob. Agents Chemother. November 1998; 42(11): 3032-4). Activities expressed as the minimal inhibitory concentrations (MICs) (μg/ml) are given in the following Table 3, and the microorganisms used for testing are listed in Table 2 below.

[4] = system: Streptococcus pneumoniae SL199T; assay: as above; conditions: code E: Streptococcus pneumoniae SL199T
Description: as §2

[5] = system: Streptococcus pneumoniae Tupelo; assay: as above; conditions: code F: Streptococcus pneumoniae Tupelo
Description: as §2

[6] = system: Haemophilus influenzae 12214; assay: MIC by broth microdilution (CAMHB + 5% Fildes enrichment, NCCLS); conditions: code G: Haemophilus influenzae 12214
Description: as §2

[7] = system: Haemophilus influenzae QK50; assay: as above; conditions: code H: Haemophilus influenzae QK50
Description: as §2

[8] = system: Staphylococcus aureus ATCC 29213; assay: MIC by broth microdilution (CAMHB, NCCLS); conditions: code A: Staphylococcus aureus ATCC 29213
Description: as §2

[9] = system: Staphylococcus aureus 1086; assay: MIC by broth microdilution (CAMHB, NCCLS); conditions: code B: Staphylococcus aureus 1086
Description: as §2

[10] = system: Escherichia coli ATCC 25922; assay: MIC by broth microdilution (CAMHB, NCCLS); conditions: code C: Escherichia coli ATCC 25922
Description: as §2

[11] = Cutibacterium acnes, read-out: MIC

Row | MIC [1] [µg/mL] | MIC [2] | MIC [3] | MIC [4] [µg/mL] | MIC [5] [µg/mL] | MIC [6] [µg/mL] | MIC [7] [µg/mL] | MIC [8] [µg/mL] | MIC [9] | MIC [10] | SMILES | MIC [1, 11] [µg/mL] | MIC [2, 11] [µg/mL]
1 |  |  |  |  |  |  |  |  |  |  | CCC[C@@H]1C[C@@H](C(=O)N[C@@H]([C@H]2O[C@H](SC)[C@H](O)[C@@H](O)[C@H]2O)[C@H](C)Cl)N(C)C1 [Clindamycin, reference compound] | > 32 | ≤ 0.06
2 | 16 (≈ 16.3 µM) | <=0.06 μg/ml | <=0.06 μg/ml | 0.5 | 0.5 | 4 | 8 | 2 (≈ 2.04 µM) | 8 µg/mL (≈ 8.17 µM) | >32 µg/mL | CC[C@H]1OC(=O)[C@H](C)[C@@H](O[C@H]2C[C@@](C)(OC)[C@@H](O)[C@H](C)O2)[C@H](C)[C@@H](O[C@@H]2O[C@H](C)C[C@H](N(C)C)[C@H]2O)[C@](C)(OC)C[C@@H](C)C(=O)[C@H](C)[C@H]2[C@H](SCCOCn3cnc4cccnc43)C(=O)O[C@@]21C [Example 2] |  | 
3 | 16 (≈ 16.4 µM) | 0.25 µg/mL (≈ 0.257 µM) | 0.25 µg/mL | 2 | 8 | >32 | 16 | 4 (≈ 4.11 µM) | 8 µg/mL (≈ 8.22 µM) | >32 µg/mL | CC[C@H]1OC(=O)[C@H](C)[C@@H](O[C@H]2C[C@@](C)(OC)[C@@H](O)[C@H](C)O2)[C@H](C)[C@@H](O[C@@H]2O[C@H](C)C[C@H](N(C)C)[C@H]2O)[C@](C)(OC)C[C@@H](C)C(=O)[C@H](C)[C@H]2[C@H](SCCCc3ccc4ncccc4c3)C(=O)O[C@@]21C [Example 3] |  | 
4 | >32 | <=0.06 μg/ml | <=0.06 μg/ml | 1 | 2 | 2 | 2 | 0.5 (≈ 0.525 µM) | >32 µg/mL | >=32 μg/ml | CC[C@H]1OC(=O)[C@H](C)[C@@H](O[C@H]2C[C@@](C)(OC)[C@@H](O)[C@H](C)O2)[C@H](C)[C@@H](O[C@@H]2O[C@H](C)C[C@H](N(C)C)[C@H]2O)[C@](C)(OC)C[C@@H](C)C(=O)[C@H](C)[C@H]2[C@H](SCC(=O)NCc3ccccn3)C(=O)O[C@@]21C [Example 6] |  | 
5 | 8 (≈ 8.02 µM) | 2 µg/mL (≈ 2.01 µM) | 2 µg/mL | 4 | 16 | >32 | >32 | 32 (≈ 32.1 µM) | >32 µg/mL | >32 µg/mL | CC[C@H]1OC(=O)[C@H](C)[C@@H](O[C@H]2C[C@@](C)(OC)[C@@H](O)[C@H](C)O2)[C@H](C)[C@@H](O[C@@H]2O[C@H](C)C[C@H](N(C)C)[C@H]2O)[C@](C)(OC)C[C@@H](C)C(=O)[C@H](C)[C@H]2[C@H](S(=O)(=O)CCn3cnc4c(N)ncnc43)C(=O)O[C@@]21C [Example 7] |  | 
6 | 4 (≈ 4.14 µM) | 0.125 µg/mL (≈ 0.13 µM) | <=0.06 μg/ml | 0.25 | 1 | 2 | 2 | 4 (≈ 4.14 µM) | >32 µg/mL | >32 µg/mL | CC[C@H]1OC(=O)[C@H](C)[C@@H](O[C@H]2C[C@@](C)(OC)[C@@H](O)[C@H](C)O2)[C@H](C)[C@@H](O[C@@H]2O[C@H](C)C[C@H](N(C)C)[C@H]2O)[C@](C)(OC)C[C@@H](C)C(=O)[C@H](C)[C@H]2[C@H](SCCNc3ncnc4[nH]cnc34)C(=O)O[C@@]21C [Example 9] |  | 
7 | 8 (≈ 8.31 µM) | <=0.06 μg/ml | <=0.06 μg/ml | 0.5 | 1 | 4 | 8 | 2 (≈ 2.08 µM) | 8 µg/mL (≈ 8.31 µM) | >32 µg/mL | CC[C@H]1OC(=O)[C@H](C)[C@@H](O[C@H]2C[C@@](C)(OC)[C@@H](O)[C@H](C)O2)[C@H](C)[C@@H](O[C@@H]2O[C@H](C)C[C@H](N(C)C)[C@H]2O)[C@](C)(OC)C[C@@H](C)C(=O)[C@H](C)[C@H]2[C@H](SCCCn3cnc4cccnc43)C(=O)O[C@@]21C [Example 12] |  | 
8 | 2 (≈ 2.07 µM) | <=0.06 μg/ml | <=0.06 μg/ml | 0.125 | 0.25 | 4 | 4 | 2 (≈ 2.07 µM) | 16 µg/mL (≈ 16.6 µM) | >=32 μg/ml | CC[C@H]1OC(=O)[C@H](C)[C@@H](O[C@H]2C[C@@](C)(OC)[C@@H](O)[C@H](C)O2)[C@H](C)[C@@H](O[C@@H]2O[C@H](C)C[C@H](N(C)C)[C@H]2O)[C@](C)(OC)C[C@@H](C)C(=O)[C@H](C)[C@H]2[C@H](SCCn3ncc4c(N)ncnc43)C(=O)O[C@@]21C [Example 13] |  | 
9 | 16 (≈ 15.7 µM) | <=0.06 μg/ml | <=0.06 μg/ml | 0.5 | 1 | 8 | 8 | 2 (≈ 1.96 µM) | 16 µg/mL (≈ 15.7 µM) | >32 µg/mL | CC[C@H]1OC(=O)[C@H](C)[C@@H](O[C@H]2C[C@@](C)(OC)[C@@H](O)[C@H](C)O2)[C@H](C)[C@@H](O[C@@H]2O[C@H](C)C[C@H](N(C)C)[C@H]2O)[C@](C)(OC)C[C@@H](C)C(=O)[C@H](C)[C@H]2[C@H](SCCN(C)CCn3cnc4c(N)ncnc43)C(=O)O[C@@]21C [Example 14] |  | 
10 | 1 (≈ 1.02 µM) | 0.125 µg/mL (≈ 0.128 µM) | <=0.06 μg/ml | 0.125 | 0.5 | 2 | 2 | 1 (≈ 1.02 µM) | >32 µg/mL | >=32 μg/ml | CC[C@H]1OC(=O)[C@H](C)[C@@H](O[C@H]2C[C@@](C)(OC)[C@@H](O)[C@H](C)O2)[C@H](C)[C@@H](O[C@@H]2O[C@H](C)C[C@H](N(C)C)[C@H]2O)[C@](C)(OC)C[C@@H](C)C(=O)[C@H](C)[C@H]2[C@H](SCCCn3cnc4c(N)ncnc43)C(=O)O[C@@]21C [Example 16] |  | 
11 |  |  |  |  |  |  |  |  |  |  | CN(C)[C@@H]1C(O)=C(C(N)=O)C(=O)[C@@]2(O)C(O)=C3C(=O)c4c(O)cccc4[C@@](C)(O)[C@H]3C[C@@H]12 [Tetracycline, reference compound] | 32 (≈ 72 µM) | ≤ 0.06

Row | SMILES | MIC [1] [µg/mL] | MIC [2] | MIC [3] | MIC [4] [µg/mL] | MIC [5] [µg/mL] | MIC [6] [µg/mL] | MIC [7] [µg/mL] | MIC [8] [µg/mL] | MIC [9] | MIC [10] | MIC [1, 11] [µg/mL] | MIC [2, 11] [µg/mL]
12 | CC[C@H]1OC(=O)[C@H](C)[C@@H](O[C@H]2C[C@@](C)(OC)[C@@H](O)[C@H](C)O2)[C@H](C)[C@@H](O[C@@H]2O[C@H](C)C[C@H](N(C)C)[C@H]2O)[C@](C)(OC)C[C@@H](C)C(=O)[C@H](C)[C@H]2[C@H](SCCCN3C(=O)c4cccnc4C3=O)C(=O)O[C@@]21C [Example 5] | 16 (≈ 16.1 µM) | <=0.06 μg/ml | <=0.06 μg/ml | 8 | 16 | 8 | 8 | 2 (≈ 2.02 µM) | >32 µg/mL | >32 µg/mL |  | 
13 | CC[C@H]1OC(=O)[C@H](C)[C@@H](O[C@H]2C[C@@](C)(OC)[C@@H](O)[C@H](C)O2)[C@H](C)[C@@H](O[C@@H]2O[C@H](C)C[C@H](N(C)C)[C@H]2O)[C@](C)(OC)C[C@@H](C)C(=O)[C@H](C)[C@H]2[C@H](SCCCN3C(=O)c4ccccc4C3=O)C(=O)O[C@@]21C [Example 15] | 16 (≈ 16.1 µM) | <=0.06 μg/ml | <=0.06 μg/ml | 1 | 2 | 4 | 4 | 1 (≈ 1.01 µM) | >=32 μg/ml | >32 µg/mL |  | 
